Measured values: ChEMBL document CHEMBL5046282, “Discovery of Brain-Penetrant Glucosylceramide Synthase Inhibitors with a Novel Pharmacophore” (J Med Chem, 2022)
Converted amounts (≈) assume the structure as drawn. The source made the active and inactive calls. The calls are words filed in the database; no cut-off is given here.

How the values were obtained:
[1] = Kinetic solubility of the compound in JP2 fluid at pH 6.8 by precipitation method; assay type: physicochemical; conditions: read-out: Kinetic_solubility
[2] = 1-Octanol/aqueous buffer partition coefficient, logD of the compound at pH 7.4 by chromatographic method; assay type: physicochemical
[3] = target: T1, Ceramide glucosyltransferase (Homo sapiens, UniProt Q16739); test: Inhibition of human GCS using C8-ceramide and UDP-glucose as substrate incubated for 1 hr by RapidFire mass spectrometry
T1 sequence (Q16739 whole entry): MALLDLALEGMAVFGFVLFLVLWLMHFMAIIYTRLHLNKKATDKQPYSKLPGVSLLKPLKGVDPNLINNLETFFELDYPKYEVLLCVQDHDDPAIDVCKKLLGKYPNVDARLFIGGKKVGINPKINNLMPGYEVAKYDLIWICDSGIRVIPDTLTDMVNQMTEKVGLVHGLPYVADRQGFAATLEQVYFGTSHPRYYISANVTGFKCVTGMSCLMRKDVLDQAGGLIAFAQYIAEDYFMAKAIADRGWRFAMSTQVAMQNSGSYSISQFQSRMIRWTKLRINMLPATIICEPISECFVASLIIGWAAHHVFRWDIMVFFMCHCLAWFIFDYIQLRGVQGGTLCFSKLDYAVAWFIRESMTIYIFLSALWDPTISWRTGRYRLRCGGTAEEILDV

[4] = Intrinsic clearance in mouse liver microsomes at 1 uM in presence of NADPH generating system assessed per mg protein by LC-MS/MS analysis; assay type: ADME, Microsome; conditions: read-out: CLH
[5] = Efflux ratio of apparent permeability from basolateral to apical side over apical to basolateral side in dog MDCK-MDR1 cells at 1 uM measured after 1 hr by LC-MS/MS analysis; assay type: ADME, cell-based, Canis lupus familiaris
[6] = target: hERG (Homo sapiens, UniProt Q12809); test: Inhibition of hERG expressed in CHO-K1 cells at 10 uM incubated for 5 mins by whole cell-automated voltage clamp analysis; assay type: toxicity, cell-based; conditions: CHO-K1 cells expressing hERG
[7] = target: T2, Ceramide glucosyltransferase (Homo sapiens) (UniProt Q16739); test: Uncompetitive inhibition of GCS (unknown origin) using 1 to 70 uM C8-ceramide and 0.1 to 200 uM UDP-glucose as substrate incubated for 1 hr by RapidFire mass spectrometry
T2 sequence (whole entry): T1 sequence (Q16739 whole entry)

Sequence of hERG (Q12809 whole entry): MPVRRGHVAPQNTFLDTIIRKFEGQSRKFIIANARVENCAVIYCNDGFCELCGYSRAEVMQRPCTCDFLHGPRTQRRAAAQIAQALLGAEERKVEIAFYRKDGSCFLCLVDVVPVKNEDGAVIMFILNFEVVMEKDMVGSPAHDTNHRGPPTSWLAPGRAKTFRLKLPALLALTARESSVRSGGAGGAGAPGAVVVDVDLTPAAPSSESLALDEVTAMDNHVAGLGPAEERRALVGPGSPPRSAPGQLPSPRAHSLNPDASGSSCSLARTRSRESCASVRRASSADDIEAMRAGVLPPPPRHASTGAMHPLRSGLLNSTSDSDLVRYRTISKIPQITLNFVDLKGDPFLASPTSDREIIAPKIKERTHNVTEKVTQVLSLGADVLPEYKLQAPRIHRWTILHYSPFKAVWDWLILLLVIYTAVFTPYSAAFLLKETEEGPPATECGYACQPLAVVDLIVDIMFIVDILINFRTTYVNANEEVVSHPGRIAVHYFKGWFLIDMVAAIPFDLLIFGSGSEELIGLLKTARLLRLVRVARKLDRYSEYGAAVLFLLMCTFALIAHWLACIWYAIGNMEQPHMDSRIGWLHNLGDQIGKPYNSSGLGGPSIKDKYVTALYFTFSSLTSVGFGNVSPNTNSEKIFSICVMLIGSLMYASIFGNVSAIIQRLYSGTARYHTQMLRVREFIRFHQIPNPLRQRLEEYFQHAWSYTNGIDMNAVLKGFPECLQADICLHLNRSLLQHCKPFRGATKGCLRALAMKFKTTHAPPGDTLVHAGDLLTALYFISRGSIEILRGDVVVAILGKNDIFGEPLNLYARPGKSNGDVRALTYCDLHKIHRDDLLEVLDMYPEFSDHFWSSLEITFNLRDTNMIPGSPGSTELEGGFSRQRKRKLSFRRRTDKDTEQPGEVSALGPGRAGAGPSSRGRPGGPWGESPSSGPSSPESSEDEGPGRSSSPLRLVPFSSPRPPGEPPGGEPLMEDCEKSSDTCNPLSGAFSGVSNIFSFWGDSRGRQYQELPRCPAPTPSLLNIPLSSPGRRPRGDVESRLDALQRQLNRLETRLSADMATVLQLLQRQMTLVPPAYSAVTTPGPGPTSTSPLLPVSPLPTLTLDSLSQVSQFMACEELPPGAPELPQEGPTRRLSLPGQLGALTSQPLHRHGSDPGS

Row | SMILES | solubility kinetic [1] [µg/mL] | chromatographic logD [2] | IC50 [3] [nM] | microsomal CLint at 1 µM [4] [µL/min/mg] | efflux ratio at 1 h, 1 µM [5] | inhibition at 5 min, 10 µM [6] [%] | inhibition [7]
1 | COc1ccccc1-c1cncc2c1CN(c1ccccc1)C2=O | 0.9 (≈ 2.84 µM) | 2.94 | 1300 | – | – | – | –
2 | COc1cccc(-c2nccc3c2CN(c2ccccc2)C3=O)c1 | – | – | > 100000 | > 768 | – | – | –
3 | COc1ccccc1-n1ncc2c1CN(c1ccccc1)C2=O | 22 (≈ 72.1 µM) | 2.45 | 4400 | – | – | – | –
4 | COc1cc(F)ccc1-c1nccc2c1CN(c1ccc(F)cc1)C2=O | – | – | 4900 | 131 | – | – | –
5 | COc1ccccc1-c1ccc2c(c1)CN(c1ccccc1)C2=O | – | – | > 100000 | – | – | – | –
6 | COc1ccccc1-c1nccc2c1CN(c1ccccc1)C2=O | 18 (≈ 56.9 µM) | 2.84 | 1900 | > 768 | – | – | –
7 | CC(C)(C#N)c1ccc(N2Cc3c(ccnc3-c3ccc(F)cc3OCC(F)(F)F)C2=O)cc1 | – | 2.86 | 17 | – | 4 | 39.4 | –
8 | COc1ccccc1-c1nccc2c1CN(c1ccccc1C)C2=O | – | – | > 100000 | 560 | – | – | –
9 | COc1ccccc1-c1cccc2c1CN(c1ccccc1)C2=O | < 0.1 | 3.87 | 2400 | – | – | – | –
10 | O=C1c2ccnc(-c3ccc(F)cc3OC(F)(F)F)c2CN1c1ccc(F)cc1 | < 0.15 | 3 | 49 | 14 | 2.6 | 51.4 | –
11 | O=C1c2ccnc(-c3ccccc3)c2CN1c1ccccc1 | – | – | > 100000 | > 768 | – | – | –
12 | CC(C)(O)c1ccc(NC(=O)c2cccc(-c3ccccc3OCC(F)(F)F)c2F)cc1 | – | 3.06 | 45 | – | 1.9 | – | –
13 | CC(C)(O)c1ccc(NC(=O)c2cccn(-c3ccccc3OCC(F)(F)F)c2=O)cc1 | – | 2.12 | 19 | – | 15 | – | –
14 | COc1ccccc1-c1nccc2c1CN(C1CCCCC1)C2=O | – | – | > 100000 | 727 | – | – | –
15 | COc1ccccc1-c1nccc2c1CN(c1cccc(C)c1)C2=O | – | – | 4400 | 584 | – | – | –
16 | CC(C)(O)c1ccc(NC(=O)c2ccnn(-c3ccc(F)cc3OCC(F)(F)F)c2=O)cc1 | – | 2.55 | 49 | – | 6.6 | – | –
17 | COc1ccccc1-c1ccnc2c1CN(c1ccccc1)C2=O | 4 (≈ 12.6 µM) | 2.81 | 17000 | – | – | – | –
18 | CS(=O)(=O)c1ccc(N2Cc3c(ccnc3-c3ccc(F)cc3OCC(F)(F)F)C2=O)cc1 | – | 1.86 | 630 | – | 32 | 23.7 | –
19 | CC(C)(O)c1ccc(NC(=O)c2cccc(-c3ccccc3OCC(F)(F)F)n2)cc1 | – | 3.6 | 170 | – | 2.2 | – | –
20 | COc1ccccc1-c1nccc2c1CN(c1ccc(F)cc1)C2=O | – | – | 1000 | 509 | – | – | –
21 | COc1ccccc1-c1nccc2c1CN(c1ccc(C)cc1)C2=O | – | – | 97 | > 768 | – | – | –
22 | CC(C)(O)c1ccc(NC(=O)c2cccc(-c3ccccc3OCC(F)(F)F)c2)cc1 | – | 3.16 | 3200 | – | 3 | – | –
23 | CN(C)C(=O)c1ccc(N2Cc3c(ccnc3-c3ccc(F)cc3OCC(F)(F)F)C2=O)cc1 | – | 1.99 | 700 | – | 35 | 41.8 | –
24 | CCCCCCCC(=O)N[C@H](CN1CCCC1)[C@H](O)c1ccc2c(c1)OCCO2 | – | – | – | – | – | – | Active
25 | CC(C)(O)COc1ccc(N2Cc3c(ccnc3-c3ccc(F)cc3OCC(F)(F)F)C2=O)cc1 | – | 2.67 | 40 | – | 7.3 | 17.6 | –
